Measured values: patent US20210255193A1, “LYSINE REACTIVE PROBES AND USES THEREOF” (The Scripps Research Institute, priority 2017, published 2021)
Values belong to the molecule of their own block, whether it stands above or below them.

Assays:
[1] = target: T1, UBA6 Ubiquitin-like modifier-activating enzyme 6 (Homo sapiens, UniProt A0AVT1); experiment: competitive isoTOP-ABPP; format: binding; conditions: for R value (DMSO/fragment) for probe 1 labeling: A0AVT1_K409
T1 construct: isoTOP-ABPP experiments performed in cell lysates (in vitro); endogenous in cells; host or cells: MDA-MB-231 soluble lysate
T1 sequence (A0AVT1 1-1052): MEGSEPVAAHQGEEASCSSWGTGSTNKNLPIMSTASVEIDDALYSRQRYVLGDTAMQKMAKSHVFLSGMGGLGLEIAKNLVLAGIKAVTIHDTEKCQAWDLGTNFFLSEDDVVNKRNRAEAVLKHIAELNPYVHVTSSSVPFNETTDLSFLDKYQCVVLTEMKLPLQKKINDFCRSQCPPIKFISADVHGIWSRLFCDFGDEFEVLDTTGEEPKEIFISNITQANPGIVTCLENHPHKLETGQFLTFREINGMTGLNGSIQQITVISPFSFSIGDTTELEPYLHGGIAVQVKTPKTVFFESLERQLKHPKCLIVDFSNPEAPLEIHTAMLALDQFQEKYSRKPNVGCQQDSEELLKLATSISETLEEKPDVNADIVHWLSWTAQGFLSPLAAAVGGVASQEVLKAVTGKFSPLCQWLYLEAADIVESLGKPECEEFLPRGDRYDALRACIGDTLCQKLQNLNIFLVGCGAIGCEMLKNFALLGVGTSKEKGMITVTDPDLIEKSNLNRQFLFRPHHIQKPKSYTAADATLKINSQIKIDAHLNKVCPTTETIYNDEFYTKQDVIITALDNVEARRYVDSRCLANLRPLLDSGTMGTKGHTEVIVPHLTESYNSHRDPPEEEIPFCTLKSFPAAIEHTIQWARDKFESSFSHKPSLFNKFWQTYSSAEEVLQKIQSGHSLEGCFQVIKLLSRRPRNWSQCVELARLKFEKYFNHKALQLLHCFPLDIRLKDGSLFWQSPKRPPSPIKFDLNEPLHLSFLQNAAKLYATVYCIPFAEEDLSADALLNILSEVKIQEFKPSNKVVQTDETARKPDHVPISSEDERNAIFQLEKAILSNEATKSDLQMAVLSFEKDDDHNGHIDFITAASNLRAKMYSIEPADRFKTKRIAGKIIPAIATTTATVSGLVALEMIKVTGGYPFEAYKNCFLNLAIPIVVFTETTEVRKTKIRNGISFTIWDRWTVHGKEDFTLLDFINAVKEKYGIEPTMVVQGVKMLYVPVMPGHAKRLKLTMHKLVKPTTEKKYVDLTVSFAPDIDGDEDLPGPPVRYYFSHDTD
How it was run: (§1)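 Here, isoTOP-ABPP measures loss of STP-alkyne labeling at individual lysines after fragment exposure in lysate. Activated esters are dosed at 50 μM, guanidinylating agents at 100 μM; the probe follows at 0.1 mM for 1 h. R ≥4 marks a liganded lysine.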

[2] = target: T2, PSMC6 26S protease regulatory subunit 10B (Homo sapiens, UniProt P62333); experiment: competitive isoTOP-ABPP; format: binding; conditions: for isoTOP-ABPP reactivity ratio at lysine P62333_K72 / isoTOP-ABPP ratio (R) at liganded lysine P62333_K72: 50 uM, in vitro; for isoTOP-ABPP reactivity ratio at lysine P62333_K72: 231 sol; for isoTOP-ABPP ratio (R) at liganded lysine P62333_K72: sol, 231
T2 construct: isoTOP-ABPP experiments performed in cell lysates (in vitro); endogenous in cells; host or cells: soluble proteome of human cancer cell lines (MDA-MB-231, Ramos, Jurkat)
How it was run: as §1

R value (DMSO/fragment) for probe 1 labeling ([1]; 50 uM, 231 sol, in vitro): 1.5
Structure (SMILES): O=C(CCc1cn(-c2ccccc2)nc1-c1ccccc1)Oc1c(F)c(F)c(F)c(F)c1F [fragment 19, Pentafluorophenyl 3-(1,3-diphenyl-1H-pyrazol-4-yl)propanoate]

R value (DMSO/fragment) for probe 1 labeling ([1]; 50 uM, 231 sol, in vitro): 1.6
Structure (SMILES): Cn1cc(CC(=O)Oc2c(F)c(F)c(F)c(F)c2F)c2ccccc21 [fragment 22, Pentafluorophenyl 2-(1-methyl-1H-indol-3-yl)acetate]

R value (DMSO/fragment) for probe 1 labeling ([1]; 50 uM, 231 sol, in vitro): 1.3
Structure (SMILES): COc1cc(CCC(=O)Oc2c(F)c(F)c(F)c(F)c2F)cc(OC)c1OC [fragment 23, Pentafluorophenyl 3-(3,4,5-trimethoxyphenyl)propanoate]

isoTOP-ABPP reactivity ratio at lysine A0AVT1_K409 ([1]; 50 uM, 231 sol, in vitro): 1.4
Structure (SMILES): O=C(Oc1c(F)c(F)c(F)c(F)c1F)c1ccc2ccccc2n1 [fragment 25, Pentafluorophenyl quinoline-2-carboxylate]

isoTOP-ABPP reactivity ratio at lysine P62333_K72 [2]: 20.0
Structure (SMILES): CCn1cc(C(=O)Oc2c(F)c(F)c(F)c(F)c2F)c(=O)c2ccc(C)nc21 [fragment 28, Pentafluorophenyl 1-ethyl-7-methyl-4-oxo-1,4-dihydro-1,8-naphthyridine-3-carboxylate]

Structure (SMILES): O=C(CCc1cn(-c2ccccc2)nc1-c1ccccc1)Oc1ccc([N+](=O)[O-])cc1[N+](=O)[O-] [fragment 29, 2,4-Dinitrophenyl 3-(1,3-diphenyl-1H-pyrazol-4-yl)propanoate]
isoTOP-ABPP reactivity ratio at lysine P62333_K72 [2]: 20.0

Structure (SMILES): Cn1cc(CC(=O)Oc2ccc([N+](=O)[O-])cc2[N+](=O)[O-])c2ccccc21 [fragment 32, 2,4-Dinitrophenyl 2-(1-methyl-1H-indol-3-yl)acetate]
isoTOP-ABPP reactivity ratio at lysine P62333_K72 [2]: 1.4

Structure (SMILES): O=C(Oc1ccc([N+](=O)[O-])cc1[N+](=O)[O-])c1ccc(-c2ccccc2)cc1 [fragment 37, 2,4-Dinitrophenyl [1,1′-biphenyl]-4-carboxylate]
isoTOP-ABPP ratio (R) at liganded lysine P62333_K72 [2]: 0.9

Structure (SMILES): O=C(Oc1ccc([N+](=O)[O-])cc1[N+](=O)[O-])c1ccc(Oc2ccccc2)cc1 [fragment 39, 2,4-Dinitrophenyl 4-phenoxybenzoate]
isoTOP-ABPP ratio (R) at liganded lysine P62333_K72 [2]: 1.1

Structure (SMILES): CC(C)(C)OC(=O)NCCCC(=O)Oc1ccc([N+](=O)[O-])cc1[N+](=O)[O-] [fragment 41, 2,4-Dinitrophenyl 4-((tert-butoxycarbonyl)amino)butanoate]
isoTOP-ABPP ratio (R) at liganded lysine A0AVT1_K409 ([1]; 50 uM, in vitro, sol, 231): 6.6
isoTOP-ABPP ratio (R) at liganded lysine P62333_K72 [2]: 1.2

Structure (SMILES): CC(=O)Oc1ccc([N+](=O)[O-])cc1[N+](=O)[O-] [fragment 43, 2,4-Dinitrophenyl acetate]
isoTOP-ABPP ratio (R) at liganded lysine P62333_K72 [2]: 1.9

Structure (SMILES): O=C(CCc1ccc2c(c1)OCO2)Oc1ccc([N+](=O)[O-])cc1[N+](=O)[O-] [fragment 45, 2,4-Dinitrophenyl 3-(benzo[d][1,3]dioxol-5-yl)propanoate]
isoTOP-ABPP ratio, lysine A0AVT1_K409 ([1]; 50 uM_231_sol_in vitro): 6.3

Structure (SMILES): O=C(ON1C(=O)CCC1=O)c1cc(C(F)(F)F)cc(C(F)(F)F)c1 [fragment 46, 3,5-Bis(trifluoromethyl)benzoic acid NHS ester]
isoTOP-ABPP ratio, lysine P62333_K72 ([2]; 50 uM_231_sol_in vitro): 0.9

isoTOP-ABPP ratio, lysine P62333_K72 ([2]; 100 uM_231_sol_in vitro): 1.3
Structure (SMILES): CC(C)(C)OC(=O)N=C(NC(=O)OC(C)(C)C)n1cccn1 [fragment 50, reference compound]
